This test addresses T1, 5-hydroxytryptamine receptor 1A (Rattus norvegicus, UniProt P19327).
T1 sequence (P19327 whole entry): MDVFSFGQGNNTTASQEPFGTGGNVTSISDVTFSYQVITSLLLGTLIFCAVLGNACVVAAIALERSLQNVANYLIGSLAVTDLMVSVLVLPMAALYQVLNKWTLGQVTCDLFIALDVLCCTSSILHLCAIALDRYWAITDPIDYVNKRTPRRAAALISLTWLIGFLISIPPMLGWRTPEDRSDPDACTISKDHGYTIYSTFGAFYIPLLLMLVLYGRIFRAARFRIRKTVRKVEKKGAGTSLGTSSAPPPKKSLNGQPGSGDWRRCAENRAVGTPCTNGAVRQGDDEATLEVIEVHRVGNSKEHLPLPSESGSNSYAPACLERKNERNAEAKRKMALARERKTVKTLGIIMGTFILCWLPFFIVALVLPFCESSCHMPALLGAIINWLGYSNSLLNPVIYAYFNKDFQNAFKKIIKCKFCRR

pKi: −log10 of the molar value.

Usually pKi stands for the Ki on a negative log10 scale, so that one unit is a factor of ten. The low end stands for a large Ki, the high end for a small Ki.

As to `CCCN(CCCNS(=O)(=O)c1ccc(C)cc1)C1COc2cccc(OC)c2C1` (stereo not given), the pKi is 8.82.
As for `CN1CCN(c2cccc3c2OCCO3)CC1`, the figure is 7.64.
Then `Oc1ccc2[nH]cc(C3=CCNCC3)c2c1`, with 7.82; and `O=C1c2ccccc2C(=O)N1CCCCN1CCN(c2cccc(Cl)c2)CC1`, with 8.33.
Then `O=C1CC2(CCCC2)CC(=O)N1CCN1CCN(c2ncccn2)CC1`, with 6.82.
On to `COc1ccccc1OCCNCC(O)COc1cccc2[nH]c3ccccc3c12` (stereo not given) [CARVEDILOL], for which the pKi is 8.50.
As for `C#Cc1cccc2c1CC(N(CCC)CCC)CC2` (stereo not given), the figure is 7.80.
Then `CCCc1ccc2c(c1CCC)CC(N(CCC)CCC)CO2` (stereo not given), with 5.00.
Then `Cc1ccc2[nH]cc(C3=CCN(C)CC3)c2c1`, with 7.50; and `C[C@H](CCc1ccccc1)NC[C@H](O)c1ccc(O)c(C(N)=O)c1` [DILEVALOL], with 6.53; and `CC(C)(C)NCC(O)COc1cccc2c1NC(=O)CC2` (stereo not given), with 6.65.
For `CC(C)C(=O)N1CCN(c2cccc(Cl)c2)CC1`, the pKi is 4.00.
Compound `CNCC(COc1cccc(C(F)(F)F)c1)c1ccccc1` (stereo not given) showed a pKi of 4.18.
As for `Cn1cc(CCN)c2c3c(ccc21)OCCC3`, the figure is 5.58.
As for `CCCN(CCCCN1C(=O)c2ccccc2C1=O)C1COc2cccc(O)c2C1` (stereo not given), the figure is 7.35.
For `CC(CN)c1c[nH]c2ccc(O)cc12` (stereo not given), the pKi was 7.07.
Then `COc1ccccc1N1CCN(CCCCNc2ccc([N+](=O)[O-])c3nonc23)CC1`, with 9.40; and `CCCCN1CCN(c2ccccc2OC)CC1`, with 6.89.
As for `COc1ccccc1N1CCN(CCCCc2ccccc2)CC1`, the figure is 9.00; as for `Cn1cc(C(F)(F)F)nc1-c1ccc(OCC(O)CNCCOc2ccc(O)c(C(N)=O)c2)cc1` (stereo not given) [CGP-20712A], 6.22.
As for `Brc1ccc2[nH]cc(C3=CCNCC3)c2c1`, the figure is 8.19.
`COc1cccc2c1CC(N)CC2` (stereo not given) gave a pKi of 6.75.
As for `CC(=O)N1CCN(c2cccc(Cl)c2)CC1`, the figure is 4.00; as for `CN(C)CC(O)CO` (stereo in doubt; 123), 5.31.
`CCN(CC)C(=O)Nc1ccc(OCC(O)CNC(C)(C)C)c(C(C)=O)c1` (stereo not given) [CELIPROLOL] showed a pKi of 5.05.
Then `COc1ccccc1N1CCN(CCCCNC(=O)C(C)c2ccccc2)CC1` (stereo not given), with 8.00; and `CN(C)CC(O)CO` (stereo in doubt; 122), with 5.30.
Then `CC(C)(C)NC[C@H](O)COc1nsnc1N1CCOCC1` [TIMOLOL], with 6.21.
As for `CCCN(CCCCNC(=O)c1ccc(F)cc1)C1COc2cccc(OC)c2C1` (stereo not given), the figure is 9.70; as for `CCCN(CCCCNC(=O)c1ccccc1OC)C1COc2cccc(OC)c2C1` (stereo not given), 9.30.
Take `CN(C)CCc1c[nH]c2ccc(O)cc12` [BUFOTENINE]: the pKi was 7.60.
Then `COc1ccccc1N1CCN(CCc2ccccc2)CC1`, with 8.74.
`CCCN(CCCN1C(=O)CC2(CCCC2)CC1=O)C1COc2cccc(OC)c2C1` (stereo not given) had a pKi of 9.30.
Then `CCCN(CCCCN1C(=O)CC2(CCCC2)CC1=O)C1COc2cccc(OC)c2C1` (stereo not given), with 10.00.
Then `CCCN(CCCCNS(=O)(=O)c1ccc(C)cc1)C1COc2cccc(OC)c2C1` (stereo not given), with 9.00; and `CN(C)CCc1c[nH]c2ccc3c(c12)CCCO3`, with 6.02; and `CCCN(CCC)C1CCc2cccc(C#N)c2C1` (stereo not given), with 7.43.
As for `CC(C)NCC(O)COc1ccc(CCOCCOC(C)C)cc1` (stereo not given), the figure is 5.00; as for `c1ccc2cc(N3CCNCC3)ccc2c1`, 5.49.
Take `CCCN(CCCCN1CCCCC1)C1COc2cccc(OC)c2C1` (stereo not given): the pKi was 9.00.

These data come from ChEMBL document CHEMBL1129278, “Binding of arylpiperazines, (aryloxy)propanolamines, and tetrahydropyridylindoles to the 5-HT1A receptor: contribution of the molecular lipophilicity potential to three-dimensional quantitative structure-affinity relationship models” (J Med Chem, 1996).
